According to US12091425B2 (AMGEN INC., priority 2016, dated 2024):
Where two headings read alike, the source gives them in different places.

Assays:
[1] = system: OPM-2 human multiple myeloma cell line; assay: Cell Viability Assay (OPM-2 10 FBS); type: cell-based; settings: Homo sapiens, OPM-2, 16 h, OPM-2 cells, 16 h, CellTiter-Glo
Method in brief: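 ATP-based luminescence (CellTiter-Glo) measured after a 16 h compound treatment of OPM-2 cells seeded at 3000 cells/well in 10% FBS medium. IC50 values derived by 4-parameter logistic fitting of serial dilutions.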

[2] = biological target: T1, Mcl-1/Bim interaction, recombinant human Mcl-1 (171-327) (Homo sapiens, UniProt Q07820); assay: Cell free Mcl-1: Bim Affinity Assay (Mcl-1 HTRF); type: binding
T1 construct: made in house
T1 sequence (Q07820 171-327): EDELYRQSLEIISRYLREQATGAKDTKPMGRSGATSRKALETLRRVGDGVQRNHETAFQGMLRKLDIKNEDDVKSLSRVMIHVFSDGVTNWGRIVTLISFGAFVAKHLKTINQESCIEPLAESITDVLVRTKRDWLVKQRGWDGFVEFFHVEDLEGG
Method in brief: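 Biotin-Bim(51-76) peptide, TR-FRET readout, overnight incubation; IC50 from duplicate competition curves, 4-parameter fit.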

[3] = rcm bond, Hoveyda-Grubbs II, AcOH
[4] = TR-FRET, 0.1 nM Mcl-1 (171-327), 0.05 nM biotin-Bim (51-76)
[5] = from C=CC[C@H](C)NS(=O)(=O)NC(=O)c1ccc2c(c1)N(C[C@@H]1CC[C@H]1[C@@H](O)C=C)C[C@@]1(CCCc3cc(Cl)ccc31)CO2, rcm bond, 16-membered ring, Hoveyda-Grubbs II, AcOH

O=C1NS(=O)(=O)[C@H]2CCC[C@@H](C=C[C@H](O)[C@@H]3CC[C@H]3CN3C[C@@]4(CCCc5cc(Cl)ccc54)COc4ccc1cc43)C2 (single isomer, unassigned)
ring closure, yield after HPLC (from NS(=O)(=O)[C@H]1CCC[C@@H](/C=C/[C@H](O)[C@@H]2CC[C@H]2CN2C[C@@]3(CCCc4cc(Cl)ccc43)COc3ccc(C(=O)O)cc32)C1, amide bond, 16-membered ring, EDC/DMAP, DCM, 2.0 mM, 16.0 h): 4.7%

C=CCCC(C#N)S(=O)(=O)NC(=O)c1ccc2c(c1)N(C[C@@H]1CC[C@H]1[C@@H](O)/C=C/CCC)C[C@@]1(CCCc3cc(Cl)ccc31)CO2 (single isomer, unassigned)
ring closure, yield after HPLC (the molecule shown is the open-chain precursor, rcm bond, 16-membered ring, Hoveyda-Grubbs II (20 mol%), reduced pressure, AcOH, 2.9 mM, […]): 2.58%

(1S,3′R,6′R,11′S)-6-chloro-11′-methyl-3,4-dihydro-2H,7′,14′H-spiro[naphthalene-1,21′-[19]oxa[12]thia[1,13]diazatetracyclo[13.7.2.0^3,6.0^18,23]tetracosa [15,17,23]triene]-7′,14′-dione 12′,12′-dioxide
ring closure, yield after HPLC (rcm bond, 15-membered ring): 4.8%

C[C@@H]1CC=C[C@H](O)[C@]2(C)CC[C@H]2CN2C[C@@]3(CCCc4cc(Cl)ccc43)COc3ccc(cc32)C(=O)NS1(=O)=O
ring closure, yield after HPLC (from C[C@H](C/C=C/[C@H](O)[C@]1(C)CC[C@H]1CN1C[C@@]2(CCCc3cc(Cl)ccc32)COc2ccc(C(=O)O)cc21)S(N)(=O)=O, amide bond, 15-membered ring, EDC/DMAP, DCM, 2.0 mM, 16.0 h): 7.1%

(1S,3′R,6′R,7′S,8′E,12′R)-12′-(2-(tert-butylsulfonyl)ethyl)-6-chloro-7′-hydroxy-3,4-dihydro-2H,15′H-spiro[naphthalene-1,22′-[20]oxa[13]thia[1,14]diazatetracyclo[14.7.2.0^3,6.0^19,24]pentacosa[8,16,18,24]tetraen]-15′-one 13′,13′-dioxide or (1S,3′R,6′R,7′S,8′E,12′S)-12′-(2-(tert-butylsulfonyl)ethyl)-6-chloro-7′-hydroxy-3,4-dihydro-2H,15′H-spiro[naphthalene-1,22′-[20]oxa[13]thia [1,14]diazatetracyclo[14.7.2.0^3,6.0^19,24]pentacosa[8,16,18,24]tetraen]-15′-one 13′,13′-dioxide
ring closure, yield after HPLC (rcm bond, 16-membered ring, Hoveyda-Grubbs II (20 mol%), reduced pressure, AcOH, 2.9 mM, […]): 6.75%

N#CC[C@@H]1CC/C=C/[C@H](O)[C@@H]2CC[C@H]2CN2C[C@@]3(CCCc4cc(Cl)ccc43)COc3ccc(cc32)C(=O)NS1(=O)=O
ring closure, yield after HPLC (from C=CC/C=C/[C@H](O)[C@@H]1CC[C@H]1CN1C[C@@]2(CCCc3cc(Cl)ccc32)COc2ccc(C(=O)NS(=O)(=O)[C@@H](CC#N)CCC=C)cc21, rcm bond, 16-membered ring, Hoveyda-Grubbs II (20 mol%), reduced pressure, AcOH, 2.89 mM, […]): 3.43%

CCN1CC/C=C/[C@H](O)[C@@H]2CC[C@H]2CN2C[C@@]3(CCCc4cc(Cl)ccc43)COc3ccc(cc32)C(=O)NS1(=O)=O (single isomer, unassigned) [Example 29]
IC50 [1]: 1280 nM | ring closure, yield after HPLC (from C=CCCN(CC)S(=O)(=O)NC(=O)c1ccc2c(c1)N(C[C@@H]1CC[C@H]1[C@@H](O)/C=C/CCC)C[C@@]1(CCCc3cc(Cl)ccc31)CO2, rcm bond, 16-membered ring, Hoveyda-Grubbs II, AcOH, 2.9 mM): 22.2% | IC50 [2, 4]: 0.66 nM

C[C@H]1C/C=C\[C@H](O)[C@@H]2CC[C@H]2CN2C[C@@]3(CCCc4cc(Cl)ccc43)COc3ccc(cc32)C(=O)NS(=O)(=O)N1 (single isomer, unassigned) [Example 62]
IC50 [1]: 362 nM | ring closure, yield after HPLC [5]: 2.1% | IC50 [2, 4]: 0.266 nM

C[C@H]1C/C=C/[C@H](O)[C@@H]2CC[C@H]2CN2C[C@@]3(CCCc4cc(Cl)ccc43)COc3ccc(cc32)C(=O)NS(=O)(=O)N1 [Example 61, (1S,3′R,6′R,7′S,8′E,11′S)-6-chloro-7′-hydroxy-11′-methyl-3,4-dihydro-2H,15′H-spiro[naphthalene-1,22′-[20]oxa[13]thia[1,12,14]triazatetracyclo[14.7.2.0^3,6.0^19,24]pentacosa[8,16,18,24]tetraen]-15′-one 13,13′-dioxide]
IC50 [1]: 278 nM | ring closure, yield after HPLC [5]: 50.1% | IC50 [2, 4]: 0.241 nM

(1S,3′R,6′R,7′S,8′E)-6-chloro-7′-hydroxy-9′-bromo-3,4-dihydro-2H,15′H-spiro[naphthalene-1,22′-[20]oxa[13]thia[1,14]diazatetracyclo[14.7.2.0^3,6.0^19,24]pentacosa[8,16,18,24]tetraen]-15′-one 13′,13′-dioxide or (1S,3′R,6′R,7′R,8′E)-6-chloro-7′-hydroxy-9′-bromo-3,4-dihydro-2H,15′H-spiro[naphthalene-1,22′-[20]oxa[13]thia[1,14]diazatetracyclo[14.7.2.0^3,6.0^19,24]pentacosa[8,16,18,24]tetraen]-15′-one 13′,13′-dioxide
ring closure, yield after HPLC (amide bond, 16-membered ring, EDC/DMAP/TEA, DCM, 5.0 mM, […]): 13%

(1S,3′R,6′R,7′S,8′E,11′S,12′R)-6-chloro-7′-hydroxy-12′-(2-methoxyethyl)-11′-methyl-3,4-dihydro-2H,15′H-spiro[naphthalene-1,22′-[20]oxa[13]thia[1,14]diazatetracyclo[14.7.2.0^3,6.0^19,24]pentacosa [8,16,18,24]tetraen]-15′-one 13′,13′-dioxide or [...] or (1S,3′R,6′R,7′S,8′E,11′R,12′R)-6-chloro-7′-hydroxy-12′-(2-methoxyethyl)-11′-methyl-3,4-dihydro-2H,15′H-spiro[naphthalene-1,22′-[20]oxa[13]thia[1,14]diazatetracyclo[14.7.2.0^3,6.0^19,24]pentacosa[8,16,18,24]tetraen]-15′-one 13′,13′-dioxide
ring closure, yield after HPLC (rcm bond, 16-membered ring, Hoveyda-Grubbs II, 1,2-dichloroethane, 3.67 mM, 50.0 °C): 8.2%

CC[C@@H]1CC/C=C/[C@H](O)[C@@H]2CC[C@H]2CN2C[C@@]3(CCCc4nc(Cl)ccc43)COc3ccc(cc32)C(=O)NS1(=O)=O [Example 798, (3R,6R,7S,8E,12R,22S)-2′-chloro-12-ethyl-7-hydroxy-7′,8′-dihydro-6′H,15H-spiro[20-oxa-13-thia-1,14-diazatetracyclo[14.7.2.0^3,6.0^19,24]pentacosa-8,16,18,24-tetraene-22,5′-quinolin]-15-one 13,13-dioxide]
IC50 [1]: 9260 nM | ring closure, isolated yield ([3]; from C=CCC[C@@H](CC)S(=O)(=O)NC(=O)c1ccc2c(c1)N(C[C@@H]1CC[C@H]1[C@@H](O)/C=C/CCC)C[C@@]1(CCCc3nc(Cl)ccc31)CO2, 16-membered ring, 2.04 mM): 39% | IC50 ([2]; cell free Mcl-1:Bim TR-FRET, recombinant human Mcl-1 (171-327)): 2.42 nM

O=C1NS(=O)(=O)CCCC/C=C/[C@@H](O)[C@@H]2CC[C@H]2CN2C[C@@]3(CCCc4cc(Cl)ccc43)COc3ccc1cc32 [Example 227, (1S,3′R,6′R,7′R,8′E)-6-chloro-7′-hydroxy-3,4-dihydro-2H,16′H-spiro[naphthalene-1,23′-[21]oxa[14]thia[1,15]diazatetracyclo[15.7.2.0^3,6.0^20,25]hexacosa[8,17,19,25]tetraen]-16′-one 14′,14′-dioxide]
IC50 [1]: 21400 nM | ring closure, isolated yield ([3]; from C=CCCCCS(=O)(=O)NC(=O)c1ccc2c(c1)N(C[C@@H]1CC[C@H]1[C@H](O)/C=C/CCC)C[C@@]1(CCCc3cc(Cl)ccc31)CO2, 17-membered ring, 5.2 mM): 59% | IC50 [2, 4]: 32.8 nM
